Assay results published in the NIST ThermoML archive (doi:10.1016/j.jct.2017.06.006).

Assay: mn = molality of the nth substance listed, in mol/kg
Details: 100 kPa, Liquid, Vibrating tube method

CCCCn1cc[n+](C)c1C.[Br-] [1-butyl-2,3-dimethylimidazolium bromide] + O
m1 = 0.1
Details | mass density [kg/m3]
283.15 K | 1004.75
288.15 K | 1004.08
293.15 K | 1003.12
298.15 K | 1001.89
303.15 K | 1000.44

N[C@@H](Cc1ccccc1)C(=O)O [L-phenylalanine] + O
mass density [kg/m3]
Details | m1 = 0.0102 | m1 = 0.0203 | m1 = 0.0293 | m1 = 0.0398 | m1 = 0.0509 | m1 = 0.0606 | m1 = 0.061 | m1 = 0.0736 | m1 = 0.0915 | m1 = 0.1028
283.15 K | 1000.19 | 1000.64 | 1001.05 | 1001.53 | 1002.02 | 1002.47 | 1002.49 | 1003.05 | 1003.87 | 1004.36
288.15 K | 999.59 | 1000.04 | 1000.44 | 1000.91 | 1001.39 | 1001.83 | 1001.85 | 1002.4 | 1003.2 | 1003.69
293.15 K | 998.69 | 999.13 | 999.52 | 999.98 | 1000.46 | 1000.9 | 1000.91 | 1001.45 | 1002.24 | 1002.73
298.15 K | 997.52 | 997.95 | 998.35 | 998.8 | 999.27 | 999.7 | 999.71 | 1000.25 | 1001.03 | 1001.5
303.15 K | 996.12 | 996.54 | 996.93 | 997.38 | 997.85 | 998.27 | 998.28 | 998.81 | 999.58 | 1000.05

O [water] + CCCCn1cc[n+](C)c1C.[Br-]
Details | mass density [kg/m3]
283.15 K, m2 = 0 | 999.72

O [water] + N[C@@H](Cc1ccccc1)C(=O)O
Details | mass density [kg/m3]
283.15 K, m2 = 0 | 999.72
